According to ChEMBL document CHEMBL4602605, “Fluoroquinolones structural and medicinal developments (2013-2018): Where are we now?” (Bioorg Med Chem, 2019):
Converted amounts (≈) assume the structure as drawn.

Key:
Type in all cases: functional
[1] = test system: Pseudomonas aeruginosa; assay: Antimicrobial activity against Pseudomonas aeruginosa ATCC 19429 incubated for 18 hrs by CLSI-based microbroth dilution method; details: ATCC 19429, 18 h
[2] = test system: Staphylococcus aureus; assay: Antimicrobial activity against Staphylococcus aureus ATCC 25923 incubated for 18 hrs by CLSI-based microbroth dilution method; details: ATCC 25923, 18 h
[3] = test system: Escherichia coli; assay: Antibacterial activity against Escherichia coli incubated for 18 hrs by CLSI-based broth microdilution method
[4] = test system: Staphylococcus aureus; assay: Antimicrobial activity against methicillin-resistant Staphylococcus aureus ATCC 33591 incubated for 18 to 24 hrs by two-fold serial dilution method
[5] = test system: Staphylococcus aureus; assay: Antimicrobial activity against methicillin-susceptible Staphylococcus aureus ATCC 29213 incubated for 18 to 24 hrs by two-fold serial dilution method
[6] = test system: Staphylococcus epidermidis; assay: Antimicrobial activity against methicillin-susceptible Staphylococcus epidermidis ATCC 12228 incubated for 18 to 24 hrs by two-fold serial dilution method
[7] = test system: Enterococcus faecium; assay: Antimicrobial activity against Enterococcus faecium ATCC 700221 incubated for 18 to 24 hrs by two-fold serial dilution method
[8] = test system: Mycobacterium tuberculosis; assay: Antimicrobial activity against Mycobacterium tuberculosis H37Rv ATCC 27294 incubated for 7 days by microplate Alamar blue assay; details: H37Rv ATCC 27294, 168 h
[9] = test system: Streptococcus pneumoniae; assay: Antibacterial activity against Streptococcus pneumoniae ATCC 49619 incubated for 24 hrs; details: ATCC 49619, 24 h
[10] = test system: Escherichia coli; assay: Antimicrobial activity against Escherichia coli ATCC 25922 incubated for 24 hrs; details: ATCC 25922, 24 h
[11] = test system: Pseudomonas aeruginosa; assay: Antimicrobial activity against Pseudomonas aeruginosa ATCC 27853 incubated for 24 hrs; details: ATCC 27853, 24 h
[12] = test system: Staphylococcus aureus; assay: Antimicrobial activity against Staphylococcus aureus ATCC 29213 incubated for 24 hrs; details: ATCC 29213, 24 h

Compound	MIC [1] [µg/mL]	MIC [2] [µg/mL]	MIC [3] [µg/mL]	MIC [9] [µg/mL]	MIC [10] [µg/mL]	MIC [11] [µg/mL]	MIC [12] [µg/mL]	other results
O=C(O)c1cn(C2CC2)c2cc(N3CCCC3)c(F)cc2c1=O	> 128	0.0625 (≈ 0.198 µM)	–	–	–	–	–	–
CCn1cc(C(=O)O)c(=O)c2cc(F)c(N(C)C)cc21	64 (≈ 230 µM)	0.5 (≈ 1.8 µM)	2 (≈ 7.19 µM)	–	–	–	–	–
O=C(O)c1cn(C2CC2)c2cc(N3CCCCC3)c(F)cc2c1=O	32 (≈ 96.9 µM)	0.25 (≈ 0.757 µM)	–	–	–	–	–	–
O=C(O)c1cn(C2CC2)c2cc(N3CCOCC3)c(F)cc2c1=O	8 (≈ 24.1 µM)	125 (≈ 376 µM)	–	–	–	–	–	–
CN1CCN(c2cc3c(cc2F)c(=O)c(C(=O)O)cn3C2CC2)CC1	1 (≈ 2.9 µM)	0.25 (≈ 0.724 µM)	0.0078 (≈ 0.0226 µM)	–	–	–	–	–
COc1ccc(C(=O)N/N=C(\C)CN2CCN(c3c(F)cc4c(=O)c(C(=O)O)cn(C5CC5)c4c3OC)CC2)cc1	–	–	–	–	–	–	–	MIC [4]: 0.25 µg/mL (≈ 0.442 µM); MIC [5]: 0.125 µg/mL (≈ 0.221 µM); MIC [6]: 0.125 µg/mL (≈ 0.221 µM); MIC [7]: 64 µg/mL (≈ 113 µM); MIC [8]: 0.214 µM (≈ 0.121 µg/mL)
CCn1cc(C(=O)O)c(=O)c2cc(F)c(N3CCN(C/C(=N/N)c4ccc([N+](=O)[O-])cc4)CC3)cc21	–	–	–	25 (≈ 50.4 µM)	12.5 (≈ 25.2 µM)	50 (≈ 101 µM)	12.5 (≈ 25.2 µM)	–
COc1c(N2CCN(C/C(C)=N/NC(=O)c3ccc(Cl)cc3)CC2)c(F)cc2c(=O)c(C(=O)O)cn(C3CC3)c12	–	–	–	–	–	–	–	MIC [4]: 0.125 µg/mL (≈ 0.219 µM); MIC [5]: 0.125 µg/mL (≈ 0.219 µM); MIC [6]: 0.125 µg/mL (≈ 0.219 µM); MIC [7]: 32 µg/mL (≈ 56.1 µM); MIC [8]: 0.272 µM (≈ 0.155 µg/mL)
CCn1cc(C(=O)O)c(=O)c2cc(F)c(N3CCN(C/C(=N/OC)c4ccccc4)CC3)cc21	–	–	–	> 100	50 (≈ 107 µM)	> 100	50 (≈ 107 µM)	–
CCn1cc(C(=O)O)c(=O)c2cc(F)c(N3CCN(C/C(=N\Nc4ccccc4)c4ccccc4)CC3)cc21	–	–	–	100 (≈ 190 µM)	25 (≈ 47.4 µM)	100 (≈ 190 µM)	50 (≈ 94.8 µM)	–
CCn1cc(C(=O)O)c(=O)c2cc(F)c(N3CCN(C/C(=N\N)c4ccccc4)CC3)cc21	–	–	–	50 (≈ 111 µM)	12.5 (≈ 27.7 µM)	100 (≈ 221 µM)	25 (≈ 55.4 µM)	–
Cl.O=C(O)c1cn(Cc2ccccc2)c2cc(N3CCNCC3)c(F)cc2c1=O	2	2	1	–	–	–	–	–
CCn1cc(C(=O)O)c(=O)c2cc(F)c(N3CCNCC3)cc21.Cl	1	2	–	–	–	–	–	–
CCCCN(CCCC)c1cc2c(cc1F)c(=O)c(C(=O)O)cn2CC	> 128	8 (≈ 22.1 µM)	> 128	–	–	–	–	–
CCCCN(CCCC)c1cc2c(cc1F)c(=O)c(C(=O)O)cn2C1CC1	> 128	8 (≈ 21.4 µM)	> 128	–	–	–	–	–
CCn1cc(C(=O)O)c(=O)c2cc(F)c(N3CCN(C/C(=N/OC)c4ccc(C)cc4)CC3)cc21	–	–	–	100 (≈ 208 µM)	25 (≈ 52 µM)	> 100	25 (≈ 52 µM)	–
CC(C)n1cc(C(=O)O)c(=O)c2cc(F)c(N3CCNCC3)cc21.Cl	4	8	0.5	–	–	–	–	–
CCN(CC)c1cc2c(cc1F)c(=O)c(C(=O)O)cn2CC	> 128	4 (≈ 13.1 µM)	8 (≈ 26.1 µM)	–	–	–	–	–
COc1c(N2CCN(C/C(C)=N/NC(=O)c3ccccc3)CC2)c(F)cc2c(=O)c(C(=O)O)cn(C3CC3)c12	–	–	–	–	–	–	–	MIC [4]: 0.125 µg/mL (≈ 0.233 µM); MIC [5]: 0.125 µg/mL (≈ 0.233 µM); MIC [6]: 0.125 µg/mL (≈ 0.233 µM); MIC [7]: > 128 µg/mL; MIC [8]: 0.226 µM (≈ 0.121 µg/mL)
CCn1cc(C(=O)O)c(=O)c2cc(F)c(N3CCN(C/C(=N/Nc4ccccc4)c4ccc(OC)cc4)CC3)cc21	–	–	–	100 (≈ 179 µM)	25 (≈ 44.8 µM)	100 (≈ 179 µM)	25 (≈ 44.8 µM)	–
CCn1cc(C(=O)O)c(=O)c2cc(F)c(N3CCN(C/C(=N/O)c4ccc([N+](=O)[O-])cc4)CC3)cc21	–	–	–	50 (≈ 101 µM)	12.5 (≈ 25.1 µM)	100 (≈ 201 µM)	6.25 (≈ 12.6 µM)	–
CN(C)c1cc2c(cc1F)c(=O)c(C(=O)O)cn2C1CC1	8 (≈ 27.6 µM)	125 (≈ 431 µM)	–	–	–	–	–	–
CCCCCCn1cc(C(=O)O)c(=O)c2cc(F)c(N3CCNCC3)cc21.Cl	> 128	> 128	64	–	–	–	–	–
Cc1ccc(/C(CN2CCN(c3cc4c(cc3F)c(=O)c(C(=O)O)cn4C3CC3)CC2)=N\NC(N)=O)cc1	–	–	–	25 (≈ 48 µM)	12.5 (≈ 24 µM)	50 (≈ 96 µM)	6.25 (≈ 12 µM)	–
Cl.NCCNc1cc2c(cc1F)c(=O)c(C(=O)O)cn2C1CC1	4	16	1	–	–	–	–	–
